# Reference: ChEMBL document CHEMBL1201862, “PubChem BioAssay data set” (2004)
# Active and inactive are the calls of the source.
# Columns and labels:
# [1] = target: T1, Apoptotic protease-activating factor 1 (Homo sapiens, UniProt O14727); assay: SAR analysis of small molecule Activators of Apaf-1 in a Fluorescent assay - set 2.; assay type: functional; conditions: read-out: EC50_Mean
# T1 sequence (O14727 whole entry): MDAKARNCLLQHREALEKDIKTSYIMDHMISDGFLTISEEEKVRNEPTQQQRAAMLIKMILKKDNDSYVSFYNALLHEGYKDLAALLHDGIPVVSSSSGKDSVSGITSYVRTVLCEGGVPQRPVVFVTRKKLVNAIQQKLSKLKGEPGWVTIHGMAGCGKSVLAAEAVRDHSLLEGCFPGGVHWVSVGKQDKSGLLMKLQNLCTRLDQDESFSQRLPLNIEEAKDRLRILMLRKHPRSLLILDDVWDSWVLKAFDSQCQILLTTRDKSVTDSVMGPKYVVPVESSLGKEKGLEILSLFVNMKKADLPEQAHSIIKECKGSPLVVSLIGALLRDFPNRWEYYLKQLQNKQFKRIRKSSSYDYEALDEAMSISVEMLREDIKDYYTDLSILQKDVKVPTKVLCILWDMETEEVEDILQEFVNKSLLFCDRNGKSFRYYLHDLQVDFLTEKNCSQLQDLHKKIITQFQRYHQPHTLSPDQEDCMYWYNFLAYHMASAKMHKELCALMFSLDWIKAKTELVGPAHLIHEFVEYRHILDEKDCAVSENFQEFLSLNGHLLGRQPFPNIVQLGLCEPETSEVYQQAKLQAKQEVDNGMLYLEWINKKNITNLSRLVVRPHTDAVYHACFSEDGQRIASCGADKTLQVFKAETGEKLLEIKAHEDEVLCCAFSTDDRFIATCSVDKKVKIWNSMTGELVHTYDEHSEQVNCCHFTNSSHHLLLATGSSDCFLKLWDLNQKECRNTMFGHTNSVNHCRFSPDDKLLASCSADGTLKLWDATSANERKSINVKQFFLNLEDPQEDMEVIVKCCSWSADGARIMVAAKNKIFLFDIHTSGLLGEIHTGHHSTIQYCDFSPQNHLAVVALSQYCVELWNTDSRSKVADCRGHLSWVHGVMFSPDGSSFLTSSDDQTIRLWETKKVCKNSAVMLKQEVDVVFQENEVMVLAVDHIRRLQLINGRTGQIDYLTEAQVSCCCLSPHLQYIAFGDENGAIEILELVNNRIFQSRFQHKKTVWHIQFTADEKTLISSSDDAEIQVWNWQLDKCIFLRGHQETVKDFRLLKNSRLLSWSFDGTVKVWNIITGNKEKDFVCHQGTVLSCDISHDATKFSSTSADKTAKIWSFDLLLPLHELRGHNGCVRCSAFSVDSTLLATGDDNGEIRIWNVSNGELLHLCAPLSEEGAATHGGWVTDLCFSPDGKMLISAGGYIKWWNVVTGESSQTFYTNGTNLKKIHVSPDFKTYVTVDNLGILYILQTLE
# [2] = SAR analysis of small molecule activators of Apaf-1 using a LZ-Caspase-9/Caspase-3 Fluorescent Selectivity assay - Set 2.; assay type: functional; conditions: read-out: EC50_Mean
smiles,measurement,setting,value
CC(Cn1cccn1)C(=O)O (configuration not stated),EC50,[1],> 100 µM (inactive)
same,EC50,[2],> 100 µM (inactive)
